Like-named read-outs stand apart in the source and are kept apart here.
System: ASAT1H (SqASAT1H; c39979_g2_i1)
Experiment: LC-MS/MS product formation, Michaelis-Menten fit
Type: biochemical, Solanum quitoense
Details: read-out: apparent Km, 30 °C, pH 6 (default), 20 min

SMILES: O[C@H]1[C@H](O)[C@@H](O)[C@H](O)[C@@H](O)[C@H]1O [myo-inositol]
- Km (nC10-CoA saturating): 4400 ± 1100 µM

SMILES: CCCCCCCCCC(=O)SCCNC(=O)CCNC(=O)[C@H](O)C(C)(C)COP(=O)(O)OP(=O)(O)OC[C@H]1O[C@@H](n2cnc3c(N)ncnc32)[C@H](O)[C@@H]1OP(=O)(O)O [nC10-CoA]
- Km (myo-inositol saturating): 9.5 ± 2.4 µM

SMILES: CCCCCCCCCCCC(=O)SCCNC(=O)CCNC(=O)[C@H](O)C(C)(C)COP(=O)(O)OP(=O)(O)OC[C@H]1O[C@@H](n2cnc3c(N)ncnc32)[C@H](O)[C@@H]1OP(=O)(O)O [nC12-CoA]
- Km (myo-inositol saturating): 16.6 ± 6.6 µM

Source: article PMC9219006 (Plant Direct, 2022)
